In US20090186838A1, “Amphotericin Derivatives” (Eidgenössische Technische Hochschule Zürich, priority 2006, published 2009):
≈ marks a conversion by molar mass, not a printed value. Where “and” joins values, the source holds several entries; their conditions need not be identical. Equal values may be shown once. Read-outs that look alike come from different tables or passages of the source.

Legend:
[1] = test system: Saccharomyces cerevisiae wild type BY4741; assay: MIC determination in Saccharomyces cerevisiae wild type BY4741; type: cell-based; details: for MIC: read-out: MIC
Method: (§1) In Vitro Antifungal Activity. MIC values for various strains were determined in accordance with the standard protocol from the National Committee of Clinical Laboratory Standards but using YEPD liquid medium instead of RPMI-1640 medium (National Committee of Clinical Laboratory Standards (Reference Method for Broth Dilution Antifungal Susceptibility Testing of Yeast, M27-A2, Approved Standard-Second Edition, Volume 22, Number 15, 1995). AmB was used as a reference. The strains were cultivated overnight in 5 mL YEPD liquid medium at 30 to 37° C. (30° C. for the strain BY4741; 37° C. for the strain DSY1764) with constant shaking. The saturated cultures were diluted to an ODB600 of 0.1 (3×10P^7 cells/mL). Using 24 wells plate, each well was prepared by adding 1% (12 μL) of DMSO solution of the tested polyene macrolide with 1% (12 μL) yeast cells solution and completed with YEPD (1.176 mL). The plates were sealed with Parafilm and then incubated for 18 to 36 hours at 30 to 37° C. (18 hours at 30° C. for the strain BY4741; 36 hours at 37° C. for the strain DSY1764). The optical density was read at 600 nm using 1.5 mL cuvettes. The MIC value was defined as the drug concentration needed to inhibit growth, less than 5% compared to a drug-free culture.
MIC values of various polyene macrolides of the invention in Saccharomyces cerevisiae wild type BY4741, a derivative of S288C, (with AmB as a reference) were determined as described hereinabove.
Based on the remarkable performance observed with the Diamine-AmB conjugate similar modifications of the aminosugar moiety were made on other polyene macrolides, such as for example Nystatin (1b) and Pimaricin (1c). The antifungal activity of these nystatin and pimaricin conjugates bearing two aminopropyl side chains was measured using Saccharomyces cerevisiae wild type BY4741.

[2] = test system: DSY-296 C. albican CI; assay: MIC determination in Candida strain DSY-296; type: cell-based, Candida albicans; details: Candida albicans
Method: as §1
(§2) MIC values of the polyene macrolides 3, 9 and 10 (Diamine-AmB and its ester and diamide derivative, respectively) in various Candida strains including an AmB-resistant strain C. albicans (DSY1764, with the genotype erg3AΔ::hisG/erg3BΔ::hisG erg11Δ::hisG/erg11Δ::hisG-URA3-hisG) were determined.

[3] = test system: DSY-562 C. glabrata CI; assay: MIC determination in Candida strain DSY-562; type: cell-based; details: Nakaseomyces glabratus
Method: as §1, §2

[4] = test system: DSY-565 C. glabrata CI; assay: MIC determination in Candida strain DSY-565; type: cell-based; details: Nakaseomyces glabratus
Method: as §1, §2

[5] = test system: CAF2-1 C. albican wt; assay: MIC determination in Candida strain CAF2-1; type: cell-based, Candida albicans; details: Candida albicans
Method: as §1, §2

[6] = test system: DSY-1751 C. albican mutant erg3; assay: MIC determination in Candida strain DSY-1751; type: cell-based, Candida albicans; details: Candida albicans
Method: as §1, §2

[7] = test system: DSY-1764 C. albican mutant erg3/11 (AmB-resistant strain); assay: MIC determination in AmB-resistant Candida strain DSY-1764; type: cell-based, Candida albicans; details: Candida albicans, 36 h
Method: as §1, §2

[8] = test system: DSY-294 C. albican CI; assay: MIC determination in Candida strain DSY-294; type: cell-based, Candida albicans; details: Candida albicans
Method: as §1, §2

[9] = test system: human erythrocytes; assay: Hemolytic assay (EH50); type: cell-based
Method: Hemolytic Assay. The hemotoxicity of the polyene macrolide derivatives of the invention was determined by measuring the toxicity towards human erythrocytes (EH50 value) using an established assay (Kinsky, S. C. et al., Biochem. Biophys. Res. Comm. 1962, 9, 503). Human blood, anticoagulated with citrate or EDTA, was centrifuged (2000×g) at 4° C. for 10 minutes. The pellets were washed three times with PBS buffer (pH 7.2 with 2 g/L glucose) and then diluted to a concentration of 4% (4×10^8 cells/mL). All experiments were done in triplo and the total volume for the hemolysis tubes was 1.4 ml. The solutions were prepared by adding 1% (14 μL) of DMSO solution of the tested compound with […] of PBS buffer and completed with 750 μL of 4% erythrocytes. After one hour incubation at 37° C., the samples were centrifuged (1500×g) at 4° C. for 5 min and the absorbance of the supernatant was measured at 560 nm. The concentration that led to 50% hemolysis (EH50) was intrapolated graphically. The value for the 100% hemolysis was obtained by the treatment with 100 μM of AmB.
The toxicity of AmB (1a) and the polyene macrolides 3, 9 and 10 towards human erythrocytes was examined using the above described hemolysis assay (Table 3).

[10] = K+ efflux assay, ergosterol containing vesicles; details: lower concentration, 0.1 μM (FIG. 3a,c,e,g)
Method: (§3) FIG. 3. K^+ efflux from vesicles (LUVET100) prepared from […] (POPC) (solid line) or POPC with sterols (dotted line) for ergosterol and (broken line) for cholesterol caused by AmB (1a) (FIGS. 3a,b) and AmB diamine 3 (FIG. 3c,d), AmB diamine ester 9 (FIG. 3e,f) and AmB diamine amide 10 (FIG. 3g,h), added in DMSO to a suspension of vesicles to give final concentrations of 0.1 μM (FIG. 3a,c,e,g) and 1.0 μM (FIG. 3b,d,f,h).
K+ efflux assay. The K^+ efflux measurements were made following a previously described procedure (Zumbuehl, A. et al., Angew. Chem. Int. Ed. 2004, 43, 5181-5185; Zumbuehl, A. et al., Org. Lett. 2004, 6, 3683-3686). The appropriate liposome suspensions were prepared using POPC, cholesterol and ergosterol. Then the liposomes were sized by extrusion through two 400 nm, 200 nm, and finally 100 nm pore size membrane. The resultant “100 nm” unilamellar liposomes were dialyzed against 600 mL of 150 mM NaCl, 5 mM HEPES (pH 7.4) buffer. After, the suspension was diluted with 150 mM NaCl, 5 mM HEPES (pH 7.4) buffer to 1 mM overall lipid concentration (phospholipids+sterols). For each efflux measurement 10 mL of this liposome suspension was placed in a small beaker. Potentiometric measurements were performed with a 16-channel electrode monitor in magnetically stirred solutions at ambient temperature. The reference electrode was a Metrohm double junction Ag/AgCl reference electrode with 3 M KCl as reference electrolyte and 1 M LiOAc as bridge electrolyte. […] The resulting reading (taken after 0.5 h) was used to quantify the 100% K+-release.
As described hereinbefore differential interaction between ergosterol found in fungal membranes and cholesterol in mammalian cells is considered the basis for the selectivity of AmB (1a) as an antifungal agent. The preferential stabilization of ion channel formation in the membrane by ergosterol ultimately results in electrolyte leakage which can be conveniently measured by K^+ efflux from sterol containing vesicles. […]

[11] = K+ efflux assay, cholesterol containing vesicles; details: lower concentration, 0.1 μM (FIG. 3a,c,e,g)
Method: as §3
K+ efflux assay. The K^+ efflux measurements were made following a previously described procedure (Zumbuehl, A. et al., Angew. Chem. Int. Ed. 2004, 43, 5181-5185; Zumbuehl, A. et al., Org. Lett. 2004, 6, 3683-3686). The appropriate liposome suspensions were prepared using POPC, cholesterol and ergosterol. Then the liposomes were sized by extrusion through two 400 nm, 200 nm, and finally 100 nm pore size membrane. The resultant “100 nm” unilamellar liposomes were dialyzed against 600 mL of 150 mM NaCl, 5 mM HEPES (pH 7.4) buffer. After, the suspension was diluted with 150 mM NaCl, 5 mM HEPES (pH 7.4) buffer to 1 mM overall lipid concentration (phospholipids+sterols). For each efflux measurement 10 mL of this liposome suspension was placed in a small beaker. Potentiometric measurements were performed with a 16-channel electrode monitor in magnetically stirred solutions at ambient temperature. The reference electrode was a Metrohm double junction Ag/AgCl reference electrode with 3 M KCl as reference electrolyte and 1 M LiOAc as bridge electrolyte. After recording the amphotericin-induced potassium efflux, liposomes were lysed by adding sodium cholate (172 mg). The resulting reading (taken after 0.5 h) was used to quantify the 100% K+-release.
As described hereinbefore differential interaction between ergosterol found in fungal membranes and cholesterol in mammalian cells is considered the basis for the selectivity of AmB (1a) as an antifungal agent. The preferential stabilization of ion channel formation in the membrane by ergosterol ultimately results in electrolyte leakage which can be conveniently measured by K^+ efflux from sterol containing vesicles. To assess the interaction of the polyene macrolide derivatives of the invention with sterols, derivatives 3, 9 and 10 were examined in their ability to lead to K^+ efflux from large unilamellar vesicles (LUV) prepared from POPC (1-palmitoyl-2-oleoyl-sn-glycero-3-phosphocholine) admixed with sterols, mimicking conditions in natural biomembranes (FIG. 3). At high concentration (FIG. 3b,d,f,h), all compounds rapidly induce complete K^+ efflux from vesicles containing ergosterol (dotted line). […] This differentiation between ergosterol and cholesterol is consistent with the observation of reduced hemotoxicity of 3, 9 and 10.

[12] = Solubility assay; type: physicochemical; details: PBS buffer, pH 7.2, aqueous buffer, kinetic from dmso stock, DMSO stock added to PBS buffer solution pH 7.2; precipitation point by light scattering at 600 nm; read-out: Solubility in water
Method: Solubility assay. The solubility assay was performed according to Lipinski, C. A. et al Advances Drug Delivery Reviews 2001, 46, 3-26. Typically, a compound of the invention was dissolved in DMSO at a concentration of 10 μg/μl. The so obtained solution was added in […] at 1 min intervals to 2.5 ml PBS buffer solution pH 7.2. These additions correspond to solubility increments of 5 μg/ml to a top value of 65 μg/ml. A total of 14 additions were made and each time increased UV absorbance from light scattering was measured at 600 nm. The precipitation point was calculated from a bilinear curve fit to the Absorbance (y axis) versus μl of DMSO (x axis) plot.
The solubility of the polyene macrolides of the invention in water was tested following the above described protocol. Clearly, all conjugates were more soluble in water then AmB.

[13] = Saccharomyces cerevisiae wild type BY4741, YEPD liquid medium, 18 hours at 30° C.

| SMILES | MIC [1, 13] | MIC [2] [µM] | MIC [3] [µM] | MIC [4] [µM] | MIC [5] [µM] | MIC [6] [µM] | MIC [7] [µM] | times more active than AmB (MIC) ([1]; Saccharomyces cerevisiae wild type BY4741, relative to AmB) [times] | MIC ([1]; Saccharomyces cerevisiae, Table 3, strain not given, values as in Table 1 (S. cerevisiae BY4741)) [µM] | MIC [8] [µM] | EH50 ([9]; concentration that led to 50% hemolysis of human erythrocytes, one hour at 37° C.) [µM] | times less toxic than AmB (EH50) ([9]; human erythrocytes, relative to AmB (1a)) [times] | K+ efflux with ergosterol containing vesicles [10] | K+ efflux with cholesterol containing vesicles [11] | solubility [12] [µg/mL] |
| --- | --- | --- | --- | --- | --- | --- | --- | --- | --- | --- | --- | --- | --- | --- | --- |
| C[C@@H]1[C@H](O)[C@@H](C)/C=C/C=C/C=C/C=C/C=C/C=C/C=C/[C@H](O[C@@H]2O[C@H](C)[C@@H](O)[C@H](N(CCCN)CCCN)[C@@H]2O)CC2O[C@](O)(C[C@@H](O)C[C@@H](O)[C@H](O)CC[C@@H](O)C[C@@H](O)CC(=O)O[C@H]1C)C[C@H](O)[C@H]2C(=O)NCCCN(C)C [compound 11, 16-(N′-(3-Dimethylaminopropyl)carboxamide)-N,N-di-(3-aminopropyl)-AmB] | 0.4 µM (≈ 0.449 µg/mL) | 0.3 (≈ 0.337 µg/mL) | 0.3 (≈ 0.337 µg/mL) | 0.3 (≈ 0.337 µg/mL) | 0.5 (≈ 0.561 µg/mL) | 1 (≈ 1.12 µg/mL) | 1 (≈ 1.12 µg/mL) |  |  |  |  |  |  |  |  |
| C[C@@H]1[C@H](O)[C@@H](C)/C=C/C=C/C=C/C=C/C=C/C=C/C=C/[C@H](O[C@@H]2O[C@H](C)[C@@H](O)[C@H](N(CCCN)CCCN)[C@@H]2O)C[C@@H]2O[C@](O)(C[C@@H](O)C[C@@H](O)[C@H](O)CC[C@@H](O)C[C@@H](O)CC(=O)O[C@H]1C)C[C@H](O)[C@H]2C(=O)O [compound 3, N,N-Di-(3-aminopropyl)-AmB] | 0.02 µM and 0.020 µM |  | 0.2 (≈ 0.208 µg/mL) | 0.2 (≈ 0.208 µg/mL) | 0.1 (≈ 0.104 µg/mL) |  | 1 (≈ 1.04 µg/mL) | 15 | 0.02 (≈ 0.0208 µg/mL) | 0.2 (≈ 0.208 µg/mL) | 10 | 2.5 | observed exclusively with the ergosterol containing vesicles | indistinguishable from background | 12 (≈ 11.6 µM) |
